Measurements from US10669289B2, “Boronic acid derivatives” (MERCK PATENT GMBH, priority 2014, dated 2020).

Assays:
[1] = biological target: human constitutive proteasome (Beta5) (Homo sapiens (Human), UniProt P28074); test: Determination of Beta5 activity (fluorescence intensity assay, Suc-LLVY-AMC); type: biochemical
Procedure: Determination of Beta5 Activity:
Measurement of Beta5 inhibition is performed in 384 well format based on fluorescence intensity assay.
(§1) Purified human constitutive proteasome (1.25 nM) and serial diluted compounds in DMSO (range of concentrations from 30 μM to 15 pM) or controls are incubated for 20 minutes or 120 minutes (long incubation) at 25° C. in assay buffer containing 50 mM Tris pH 7.4, 0.03% SDS, 1 mM EDTA and 1% DMSO. The reaction is initiated by the addition of the fluorogenic peptide substrate, Suc-LLVY-AMC (Bachem 1-1395), at a concentration of 40 μM. After 60 minutes of incubation at 37° C., fluorescence intensity is measured at λex=350 nm and λem=450 nm with a fluorescence reader (Perkin Elmer Envision reader or equivalent).
(§2) Unless indicated otherwise the results are obtained after incubation for 20 minutes.

[2] = biological target: human immuno proteasome (LMP7) (Homo sapiens (Human), UniProt P28062); test: Determination of LMP7 activity (fluorescence intensity assay, Suc-LLVY-AMC); type: biochemical
Procedure: Determination of LMP7 Activity:
Measurement of LMP7 inhibition is performed in 384 well format based on fluorescence intensity assay.
as §1, with “immuno” for “constitutive”, “(0.25” for “(1.25”
as §2

[3] = LMP7 versus Beta5, incubation for 20 minutes
[4] = LMP7 versus Beta5, long incubation (120 min)

IC50 ([1]; incubation for 20 minutes)	Selectivity LMP7 vs Beta5 [2, 3]	IC50 ([2]; incubation for 20 minutes)	IC50 ([1]; long incubation (120 min))	Selectivity LMP7 vs Beta5 [2, 4]	IC50 ([2]; long incubation (120 min))	SMILES
> 5 µM	+++++ (Selectivity ≥ 150)	< 0.05 µM				C=CC(=O)N(C)CC(=O)N[C@@H](Cc1ccc(C)c(C)c1)B(O)O [Compound No. 16, [(1R)-2-(3,4-dimethylphenyl)-1-[[2-[methyl(prop-2-enoyl)amino]-acetyl]amino]ethyl]boronic Acid]
			> 5 µM	+++++ (Selectivity ≥ 150)	< 0.05 µM	C=CC(=O)N(C)CC(=O)N[C@@H](Cc1ccc(C(F)(F)F)cc1C)B(O)O [Compound No. 67, [(1R)-1-[[2-[methyl(prop-2-enoyl)amino]acetyl]amino]-2-[2-methyl-4-(trifluoromethyl)phenyl]ethyl]boronic Acid]
0.5 to 5 µM	+++ (70 ≤ 100)	< 0.05 µM				C=CC(=O)N1c2ccccc2CC1C(=O)N[C@@H](Cc1ccc(C)cc1C)B(O)O (stereo partly drawn) [Compound No. 8, [(1R)-2-(2,4-dimethylphenyl)-1-[(1-prop-2-enoylindoline-2-carbonyl)amino]ethyl]boronic Acid]
			> 5 µM	+++++ (Selectivity ≥ 150)	< 0.05 µM	C=CC(=O)N(CC#N)CC(=O)N[C@@H](Cc1ccc(C)c(C)c1)B(O)O [Compound No. 63, [(1R)-1-[[2-[cyanomethyl(prop-2-enoyl)amino]acetyl]amino]-2-(3,4-dimethylphenyl)ethyl]boronic Acid]
			0.05 to 0.5 µM	+++++ (Selectivity ≥ 150)	< 0.05 µM	C=CC(=O)N(CC(=O)N[C@@H](Cc1coc2ccccc12)B(O)O)c1ccccc1F [Compound No. 86, [(1R)-2-(benzofuran-3-yl)-1-[[2-(2-fluoro-N-prop-2-enoyl-anilino)acetyl]amino]ethyl]boronic Acid]
			> 5 µM	+++++ (Selectivity ≥ 150)	0.05 to 0.5 µM	CCN(CC(=O)N[C@@H](Cc1ccc(C)cc1C)B(O)O)C(=O)/C=C/C(=O)N(C)C [Compound No. 62, [(1R)-1-[[2-[[(E)-4-(dimethylamino)-4-oxo-but-2-enoyl]-ethyl-amino]acetyl]amino]-2-(2,4-dimethylphenyl)ethyl]boronic Acid]
0.5 to 5 µM	+++++ (Selectivity ≥ 150)	< 0.05 µM				Cc1ccc(C[C@H](NC(=O)CN(C)C(=O)/C=C/Cl)B(O)O)c(C)c1 [Compound No. 13, [(1R)-1-[[2-[[(E)-3-chloroprop-2-enoyl]-methyl-amino]acetyl]amino]-2-(2,4-dimethylphenyl)ethyl]boronic Acid]
			> 5 µM	+++++ (Selectivity ≥ 150)	< 0.05 µM	C=CC(=O)N(CC(=O)N[C@@H](Cc1ccsc1)B(O)O)c1ccccc1F [Compound No. 78, [(1R)-1-[[2-(2-fluoro-N-prop-2-enoyl-anilino)acetyl]amino]-2-(3-thienyl)ethyl]boronic Acid]
> 5 µM	+++++ (Selectivity ≥ 150)	< 0.05 µM				C=CC(=O)N(CC(=O)N[C@@H](Cc1ccc(C)cc1C)B(O)O)c1ccccc1F [Compound No. 1, [(1R)-2-(2,4-dimethylphenyl)-1-[[2-(2-fluoro-N-prop-2-enoyl-anilino)acetyl]amino]ethyl]boronic Acid]
			> 5 µM	+++++ (Selectivity ≥ 150)	< 0.05 µM	C=CC(=O)N(CC#N)CC(=O)N[C@@H](Cc1ccc(C)cc1C)B(O)O [Compound No. 56, [(1R)-1-[[2-[cyanomethyl(prop-2-enoyl)amino]acetyl]-amino]-2-(2,4-dimethylphenyl)ethyl]boronic Acid]
0.5 to 5 µM	++ (50 ≤ Selectivity < 70)	0.05 to 0.5 µM				CCN(CC(=O)N[C@@H](Cc1ccc(C)cc1C)B(O)O)C(=O)C=C(C)C [Compound No. 24, [(1R)-2-(2,4-dimethylphenyl)-1-[[2-[ethyl(3-methylbut-2-enoyl)amino]-acetyl]amino]ethyl]boronic Acid]
> 5 µM	++++ (100 ≤ Selectivity < 150)	0.05 to 0.5 µM				C=CC(=O)N(CC)CC(=O)N[C@@H](Cc1ccc(C)cc1C)B(O)O [Compound No. 34, [(1R)-2-(2,4-dimethylphenyl)-1-[[2-[ethyl(prop-2-enoyl)amino]acetyl]-amino]ethyl]boronic Acid]
0.5 to 5 µM	+++ (70 ≤ 100)	< 0.05 µM				C/C=C/C(=O)N(CC)CC(=O)N[C@@H](Cc1ccc(C)cc1C)B(O)O [Compound No. 23, [(1R)-1-[[2-[[(E)-but-2-enoyl]-ethyl-amino]acetyl]amino]-2-(2,4-dimethylphenyl)ethyl]boronic Acid]
			> 5 µM	+++++ (Selectivity ≥ 150)	< 0.05 µM	C=CC(=O)N(CC(=O)N[C@@H](Cc1ccc(C)cc1C)B(O)O)c1cc(F)ccc1F [Compound No. 42, [(1R)-1-[[2-(2,5-difluoro-N-prop-2-enoyl-anilino)acetyl]amino]-2-(2,4-dimethylphenyl)ethyl]boronic Acid]
			> 5 µM	+++++ (Selectivity ≥ 150)	0.05 to 0.5 µM	C=CC(=O)N(CC(=O)NC(Cc1ccsc1)B(O)O)c1ccccc1CC (stereo not drawn) [Compound No. 93, [1-[[2-(2-ethyl-N-prop-2-enoyl-anilino)acetyl]amino]-2-(3-thienyl)ethyl]boronic Acid]
			> 5 µM	+++++ (Selectivity ≥ 150)	< 0.05 µM	C=CC(=O)N(C)CC(=O)N[C@@H](Cc1ccc(C)c(C)c1C)B(O)O [Compound No. 74, [(1R)-1-[[2-[methyl(prop-2-enoyl)amino]acetyl]amino]-2-(2,3,4-trimethylphenyl)ethyl]boronic Acid]
0.5 to 5 µM	+++ (70 ≤ 100)	< 0.05 µM				CC#CC(=O)N(CC)CC(=O)N[C@@H](Cc1ccc(C)cc1C)B(O)O [Compound No. 19, [(1R)-1-[[2-[but-2-ynoyl(ethyl)amino]acetyl]amino]-2-(2,4-dimethylphenyl)ethyl]boronic Acid]
0.5 to 5 µM	++++ (100 ≤ Selectivity < 150)	< 0.05 µM				C#CC(=O)N(CC(=O)N[C@@H](Cc1ccc(C)cc1C)B(O)O)c1ccccc1 [Compound No. 7, [(1R)-2-(2,4-dimethylphenyl)-1-[[2-(N-prop-2-ynoylanilino)acetyl]-amino]ethyl]boronic Acid]
0.5 to 5 µM	+ (Selectivity < 50)	< 0.05 µM				CC#CC(=O)N(C)CC(=O)N[C@@H](Cc1ccc(C)cc1C)B(O)O [Compound No. 20, [(1R)-1-[[2-[but-2-ynoyl(methyl)amino]acetyl]amino]-2-(2,4-dimethylphenyl)ethyl]boronic Acid]
			0.5 to 5 µM	+++++ (Selectivity ≥ 150)	< 0.05 µM	C=CC(=O)NCC(=O)N[C@@H](Cc1ccc(C)c(C)c1)B(O)O [Compound No. 88, [(1R)-2-(3,4-dimethylphenyl)-1-[[2-(prop-2-enoylamino)acetyl]amino]ethyl]boronic Acid]
			> 5 µM	+++++ (Selectivity ≥ 150)	< 0.05 µM	C=CC(=O)N(CC(=O)N[C@@H](Cc1ccsc1)B(O)O)c1ccccc1 [Compound No. 92, [(1R)-1-[[2-(N-prop-2-enoylanilino)acetyl]amino]-2-(3-thienyl)ethyl]boronic Acid]
> 5 µM	+++++ (Selectivity ≥ 150)	< 0.05 µM				C=CC(=O)N(CC(=O)N[C@@H](Cc1ccc(C)cc1C)B(O)O)c1ccccc1Cl [Compound No. 87, [(1R)-1-[[2-(2-chloro-N-prop-2-enoyl-anilino)acetyl]amino]-2-(2,4-dimethylphenyl)ethyl]boronic Acid]
			> 5 µM	+++++ (Selectivity ≥ 150)	< 0.05 µM	C=CC(=O)N(CC(=O)N[C@@H](Cc1ccsc1)B(O)O)c1ccc(OC)c(OC)c1 [Compound No. 99, [(1R)-1-[[2-(3,4-dimethoxy-N-prop-2-enoyl-anilino)acetyl]-amino]-2-(3-thienyl)ethyl]boronic Acid]
> 5 µM	++ (50 ≤ Selectivity < 70)	0.5 to 5 µM				C=CC(=O)N(c1ccccc1)[C@@H](C)C(=O)N[C@@H](Cc1ccc(C)c(C)c1)B(O)O [Compound No. 48, [(1R)-2-(3,4-dimethylphenyl)-1-[[(2S)-2-(N-prop-2-enoylanilino)propanoyl]amino]ethyl]boronic Acid]
			> 5 µM	+ (Selectivity < 50)	0.5 to 5 µM	C=CC(=O)N(CC)CC(=O)N[C@H](Cc1ccsc1)B(O)O [Compound No. 76, [(1S)-1-[[2-[ethyl(prop-2-enoyl)amino]acetyl]amino]-2-(3-thienyl)ethyl]boronic Acid]
